{"source": "patent US12195413B2", "about": "“Ethynyl derivatives” (Hoffmann-La Roche Inc., priority 2015, dated 2025)", "assay": "rat Vogel conflict drinking test", "type": "in vivo", "data": [{"smiles": "CN1C(=O)N(c2ccc(C#Cc3ccccc3)cn2)[C@@H]2CC[C@@H]21", "note": "[Example 1, (−)-(1S,5R)-2-methyl-4-(5-(phenylethynyl)pyridin-2-yl)-2,4-diazabicyclo[3.2.0]heptan-3-one]", "values": [{"measurement": "anxiolytic activity, minimal effective dose", "result": 0.1, "unit": "mg/kg"}]}]}
